From patent US8575135B2 (Gilead Sciences, Inc., priority 2011, dated 2013)
Read-outs that look alike come from different tables or passages of the source.

How the values were obtained:
Assay in all cases: microbe, parasite or virus in culture
Details in all cases: Hepatitis C virus
[1] = tested on: stable HCV 1a RLuc replicon cells (genotype 1a H77 replicon); assay type: cell-based
[2] = tested on: stable HCV 2a JFH-1 Rluc replicon cells (L31 present in NS5A); assay type: cell-based
[3] = tested on: NS5A chimeric genotype 1b Con1 replicon with genotype 3a S52 strain NS5A gene; assay type: cell-based, HCV
How it was run: (§1)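 Con1 1b replicons carrying 3a S52 or 4a ED43 NS5A with Pi-RLuc reporter were transiently transfected into Huh-Lunet cells; 2b MD2b-1 NS5A (M31) in JFH-1 2a backbone with RLuc-Neo, transient or stable.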

[4] = tested on: NS5A chimeric genotype 2a JFH-1 replicon with genotype 2a J6 strain NS5A gene (M31 present); assay type: cell-based, HCV
[5] = tested on: NS5A chimeric genotype 2a JFH-1 replicon with genotype 2b MD2b-1 strain NS5A gene (M31 present); assay type: cell-based, HCV
How it was run: as §1

[6] = tested on: NS5A chimeric genotype 1b Con1 replicon with genotype 4a ED43 strain NS5A gene; assay type: cell-based, HCV
[7] = tested on: 1a Pi-Rluc replicon with Q30R in genotype 1a NS5A; assay type: cell-based, HCV
Experimental: Antiviral potency (EC50) was determined using a Renilla luciferase (RLuc)-based HCV replicon reporter assay. […] To perform the assay for genotype 2a (with M31 present in NS5A) or 2b, NS5A chimeric genotype 2a JFH-1 replicons that encodes a RLuc-Neo reporter and either genotype 2a J6 strain NS5A gene or genotype 2b MD2b-1 strain NS5A gene (both with M31 present) respectively, were either transiently transfected (t) into Huh-Lunet cells or were established as stably replicating replicon cells (s) is provided. Either cells were dispensed into 384-well plates for EC50 assays. To perform the assay for genotype 3 and 4, NS5A chimeric genotype 1b Con1 replicons that encodes a Pi-RLuc reporter and either genotype 3a S52 strain NS5A gene or genotype 4a ED43 strain NS5A gene respectively, were transiently transfected (t) into Huh-Lunet cells, which were subsequently dispensed into 384-well plates. Compounds were dissolved in DMSO at a concentration of 10 mM and diluted in DMSO either manually or using an automated pipeting instrument. Serially 3-fold diluted compounds were either manually mixed with cell culture media and added to the seeded cells or directly added to the cells using an automated instrument. […] 72 hours later, cells were lysed and Renilla luciferase activity quantified as recommended by the manufacturer (Promega-Madison, Wis.). Non-linear regression was performed to calculate EC50 values.
To determine the antiviral potency (EC50) against resistance mutants, resistance mutations, including M28T, Q30R, Q30H, L31M, and Y93C in genotype 1a NS5A and Y93H in genotype 1b NS5A, were introduced individually into either 1a Pi-Rluc or 1b Pi-Rluc replicons by site directed mutagenesis. Replicon RNA of each resistant mutant was transiently transfected into Huh-7-derived cured-51 cells and antiviral potency was determined on these transfected cells as described above.

Compound | EC50 ([1]; read-out: 1a) [nM] | EC50 ([1]; read-out: 1a (nM)) [nM] | EC50 ([2]; read-out: 2a JFH) [nM] | EC50 ([2]; read-out: 2a JFH (nM)) [nM] | EC50 ([3]; read-out: 3a) [nM] | EC50 ([3]; read-out: 3a (nM)) [nM] | EC50 ([4]; read-out: 2a J6) [nM] | EC50 ([4]; read-out: 2a J6 (s) (nM)) [nM] | EC50 ([4]; read-out: 2a Jb (t) (nM)) [nM] | EC50 ([5]; read-out: 2b) [nM] | EC50 ([5]; read-out: 2b (s) (nM)) [nM] | EC50 ([5]; read-out: 2b (t) (nM)) [nM] | EC50 ([6]; read-out: 4a) [nM] | EC50 ([6]; read-out: 4a (s) (nM)) [nM] | EC50 ([6]; read-out: 4a (t) (nM)) [nM] | EC50 ([7]; read-out: 1a Q30R) [nM] | EC50 ([7]; read-out: 1a Q30R (nM)) [nM]
COC[C@H]1C[C@@H](c2nc3ccc4cc5c(cc4c3[nH]2)OCc2cc(-c3cnc([C@@H]4CCCN4C(=O)[C@H](NC(=O)OC)c4ccccc4)[nH]3)ccc2-5)N(C(=O)[C@@H](NC(=O)OC)C(C)C)C1 [Example MM, methyl {(1R)-2-[(2S)-2-(5-{2-[(2S,4S)-1-{(2S)-2-[(methoxycarbonyl)amino]-3-methylbutanoyl}-4-(methoxymethyl)pyrrolidin-2-yl]-1,11-dihydroisochromeno[4′,3′:6,7]naphtho[1,2-d]imidazol-9-yl}-1H-imidazol-2-yl)pyrrolidin-1-yl]-2-oxo-1-phenylethyl}carbamate] | < 1 | 0.022 | < 1 | 0.007 | < 1 | 0.02 | < 1 | 0.064 | 0.018 | < 1 | 0.042 | 0.015 | < 1 | 0.016 | 0.017 | < 1 | 0.044
COC[C@@H]1C[C@@H](c2nc3ccc4cc5c(cc4c3[nH]2)OCc2cc(-c3cnc([C@@H]4CCCN4C(=O)[C@@H](NC(=O)OC)C(C)C)[nH]3)ccc2-5)N(C(=O)[C@H](NC(=O)OC)c2ccccc2)C1 [Example MQ, methyl{(1R)-2-[(2S,4R)-2-(9-{2-[(2S)-1-{(2S)-2-[(methoxycarbonyl)amino]-3-methylbutanoyl}pyrrolidin-2-yl)-1H-imidazol-5-yl]-1,11-dihydroisochromeno[4′,3′:6,7]naphtho[1,2-d]imidazol-2-yl}-4-(methoxymethyl)pyrrolidin-1-yl]-2-oxo-phenylethyl}carbamate] | < 1 | 0.008 | < 1 | 0.004 | < 1 | 0.016 | < 1 | 0.095 | 0.017 | < 1 | 0.023 | 0.009 | < 1 | – | 0.011 | < 1 | 0.023
COC[C@H]1C[C@@H](c2nc3c([nH]2)-c2cc4c(cc2CC3)-c2ccc(-c3cnc([C@@H]5CCCN5C(=O)[C@@H](NC(=O)OC)C(C)C)[nH]3)cc2CO4)N(C(=O)[C@H](NC(=O)OC)c2ccccc2)C1 [Example MR, methyl{(1R)-2-[(2S,4S)-2-(9-{2-[(2S)-1-{(2S)-2-[(methoxycarbonyl)amino]-3-methylbutanoyl}pyrrolidin-2-yl)-1H-imidazol-5-yl]-1,11-dihydroisochromeno[4′,3′:6,7]-4,5-dihydro-naphtho[1,2-d]imidazol-2-yl}-(methoxymethyl)pyrrolidin-1-yl]-2-oxo-1-phenylethyl}carbamate] | < 1 | 0.028 | < 1 | 0.017 | < 1 | 0.078 | < 1 | 0.176 | 0.079 | < 1 | 0.053 | 0.039 | < 1 | – | 0.045 | < 1 | 0.128
COC[C@H]1C[C@@H](c2ncc(-c3ccc4c(c3)COc3cc5c(ccc6nc([C@@H]7CCCN7C(=O)[C@@H](NC(=O)OC)C(C)C)[nH]c65)cc3-4)[nH]2)N(C(=O)[C@H](NC(=O)OC)c2ccccc2)C1 [Example MU, methyl{(1R)-2-[(2S,4S)-2-(5-{2-[(2S)-1-{(2S)-2-[(methoxycarbonyl)amino]-3-methylbutanoyl}-pyrrolidin-2-yl]-1,11-dihydroisochromeno[4′,3′:6,7]naphtho[1,2-d]imidazol-9-yl}-1H-imidazol-2-yl)-4-(methoxymethyl)pyrrolidin-1-yl]-2-oxo-1-phenylethyl}carbamate] | < 1 | 0.008 | < 1 | 0.004 | < 1 | 0.017 | < 1 | 0.046 | 0.013 | < 1 | 0.025 | 0.009 | < 1 | – | 0.011 | < 1 | 0.023
COC(=O)N[C@H](C(=O)N1CCC[C@H]1c1ncc(-c2ccc3c(c2)COc2cc4c(ccc5nc([C@@H]6C[C@H](C)CN6C(=O)[C@H](NC(=O)OC)c6ccccc6)[nH]c54)cc2-3)[nH]1)C(C)C [Example MY, Methyl {2-[2-{9-[2-(1-{2-[(methoxycarbonyl)amino]-3-methylbutanoyl}pyrrolidin-2-yl)-1H-imidazol-5-yl]-1,11-dihydroisochromeno[4′,3′:6,7]naphtho[1,2-d]imidazol-2-yl}-4-(methyl)pyrrolidin-1-yl]-2-oxo-1-phenylethyl}carbamate] | < 1 | 0.016 | < 1 | 0.005 | < 1 | 0.01 | < 1 | 0.165 | 0.047 | < 1 | 0.047 | 0.016 | < 1 | 0.02 | 0.008 | < 1 | 0.024
